Results on one molecule are retold here after US20230009323A1, “COMPOUNDS AND METHODS FOR THE TREATMENT OF CRYPTOSPORIDIOSIS” (The Broad Institute, Inc., priority 2019, published 2023).

For the experiment, the system named is C. parvum Iowa isolate (Bunch Grass Farms). Nature of the experiment: C. parvum time-kill curve assay in HCT-8 cells. The experiment is classed as cell-based, Cryptosporidium parvum. As for the experimental part:
Time-kill curve assays were performed in 384-well plates using C. parvum Iowa isolate oocysts (Bunch Grass Farms, Deary, Id.) following infection of HCT-8 cell monolayers as described in Jumani, R. S. et al. Antimicrobial agents and chemotherapy 62, e01505-01517 (2018), hereby incorporated by reference in its entirety. […] Single-phase exponential decay curves were fit using GraphPad Prism software version 6.01 after normalizing the percentage of host cells infected to the vehicle control value at each time point, which isolates the effect of compound treatment from the spontaneous reduction in parasite numbers that occurs in this culture system.

For the molecule `COc1ccc(NC(=O)N2CCCCN3[C@H](CN(C)C)[C@H](c4ccc(C#Cc5ccccc5)cc4)[C@@H]3C2)cc1` [Compound 11, (8R,9S,10S)-10-((dimethylamino)methyl)-N-(4-methoxyphenyl)-9-(4-(phenylethynyl)phenyl)-1,6-diazabicyclo[6.2.0]decane-6-carboxamide], the “parasites per nucleus at 80 h” value by setting is: (compound at EC50) approximately 60%; (compound at EC90) approximately 30%. In addition, the “time required to eliminate 99.9% of parasites” value (normalized to vehicle control) is approximately 95 h.
